Where a name gives a salt, the structure may show the parent alone. Read-outs that look alike come from different tables or passages of the source. Values belong to the molecule of their own block, whether it stands above or below them.
Key:
[1] = Solubility of dorzolamide suspension formulation, Example A; format: physicochemical; details: aqueous buffer, thermodynamic from solid; PBS+0.02% sodium azide, pH 7.4, 37C; read-out: dissolved concentration (i.e., solubility)
[2] = Diffusion coefficient in water (literature value / estimate by MW scaling); format: physicochemical; details: estimated, at 37C
Text: If the reservoir solution is aqueous or has a viscosity similar to water, the value for the diffusion coefficient of the therapeutic agent (TA) in water at the temperature of interest may be used. […] (Molokhia et al, Exp Eye Res 2008): DTA,37C=DBSA,20C(η20C/η37C)(MWBSA/MWTA)^1/3 where
MW refers to the molecular weight of either BSA or the test compound and η is the viscosity of water.
Small molecules have a diffusion coefficient similar to fluorescein (MW=330, D=4.8 to 6 e-6 cm^2/s from Stay, M S et al. Pharm Res 2003, 20(1), pp. 96-102). For example, the small molecule may comprise a glucocorticoid such as triamcinolone acetonide having a molecular weight of about 435.
(§1) The volume of the device was approximately 25 uL.
as §1

[3] = rabbit and monkey (Gaudreault et al), cited from earlier work
[4] = cited from earlier work
[5] = tested on: laser photocoagulation treatment-induced Grade IV choroidal neovascularization (CNV) Lesions; details: intravitreal injection, all doses tested (Z. Yao et al., ARVO 2009); cited from earlier work

solubility [1]: 9000 µg/mL
Molecule: CCN[C@H]1C[C@H](C)S(=O)(=O)c2sc(S(N)(=O)=O)cc21 [Dorzolamide, dorzolamide Hydrochloride]

diffusion coefficient [2]: 5×10^−6 cm^2/s
Molecule: CN(Cc1cnc2nc(N)nc(N)c2n1)c1ccc(C(=O)N[C@@H](CCC(=O)O)C(=O)O)cc1 [Methotrexate, methotrexate]

diffusion coefficient [2]: 6×10^−6 cm^2/s
Molecule: O=C(c1ccccc1)c1ccc2n1CCC2C(=O)O (centres unmarked) [Ketorolac, Ketorolac Tromethamine]

Molecule: ranibizumab [Lucentis]
half-life in vitreous [3]: about two to four days
half-life in vitreous ([3]; listed as ranibizumab): approximately 3 days
half-life in vitreous ([4]; human eye (Lucentis package insert)): ~220 h
Half-life ([4]; human vitreous, model parameter for FIGS. 119 to 124): 220 h
development of Grade IV CNV lesions [5]: completely inhibit

— patent publication US10166142B2, “Small molecule delivery with implantable therapeutic device” (ForSight Vision4, Inc., priority 2011, dated 2019)
